These results are taken from patent publication US11739098B2 (BRISTOL-MYERS SQUIBB COMPANY, priority 2017, dated 2023).

Assay type in all cases: cell-based
One test has as its target T1, human TLR8 (Homo sapiens, UniProt Q9NR97).
T1 construct: host or cells: HEK-Blue cells (HEK293-derived reporter line)
T1 sequence (Q9NR97 27-1041): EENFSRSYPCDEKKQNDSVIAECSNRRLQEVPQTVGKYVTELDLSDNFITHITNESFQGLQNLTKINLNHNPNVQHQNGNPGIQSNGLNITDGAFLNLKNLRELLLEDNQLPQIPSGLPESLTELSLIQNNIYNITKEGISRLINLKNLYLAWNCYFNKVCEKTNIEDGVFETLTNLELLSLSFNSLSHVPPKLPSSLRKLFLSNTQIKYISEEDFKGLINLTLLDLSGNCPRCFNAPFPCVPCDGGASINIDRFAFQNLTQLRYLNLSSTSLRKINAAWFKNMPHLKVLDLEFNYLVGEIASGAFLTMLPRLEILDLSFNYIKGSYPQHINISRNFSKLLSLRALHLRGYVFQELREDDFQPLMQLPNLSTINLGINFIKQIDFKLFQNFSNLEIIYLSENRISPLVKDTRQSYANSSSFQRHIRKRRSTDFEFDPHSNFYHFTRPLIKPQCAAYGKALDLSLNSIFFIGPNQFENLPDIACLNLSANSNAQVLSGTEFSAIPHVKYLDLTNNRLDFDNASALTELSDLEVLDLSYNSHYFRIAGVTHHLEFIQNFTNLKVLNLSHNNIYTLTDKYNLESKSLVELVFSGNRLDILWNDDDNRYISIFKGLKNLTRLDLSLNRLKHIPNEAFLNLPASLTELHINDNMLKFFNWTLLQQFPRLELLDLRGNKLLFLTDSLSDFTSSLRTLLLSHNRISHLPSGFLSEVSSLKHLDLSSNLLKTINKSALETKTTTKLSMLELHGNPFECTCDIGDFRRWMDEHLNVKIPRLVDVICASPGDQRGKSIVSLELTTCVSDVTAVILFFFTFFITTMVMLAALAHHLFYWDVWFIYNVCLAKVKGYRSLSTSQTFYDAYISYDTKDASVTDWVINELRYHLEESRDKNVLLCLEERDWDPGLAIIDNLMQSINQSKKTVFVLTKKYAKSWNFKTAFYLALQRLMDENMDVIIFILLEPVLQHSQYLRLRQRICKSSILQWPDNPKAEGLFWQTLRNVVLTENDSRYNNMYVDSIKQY
Put plainly: TLR8 inhibition reporter assay (HEK-Blue cells, SEAP reporter, R848 stimulation). Particulars: HEK-Blue cells overexpressing human TLR8, SEAP reporter, R848 15.9 μM. In short, it runs like this: (§1)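 Agonists (final): TLR7 gardiquimod 7.5 μM; TLR8 R848 15.9 μM; TLR9 ODN2006 5 nM. HEK-Blue reporter cells, 30 min RT compound pre-incubation, 0.05 nM–50 μM dose range, 22 h at 37 °C, colorimetric SEAP detection medium. % inhibition relative to agonist+DMSO and known-inhibitor wells.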

In a further test the target is T2, human TLR7 (Homo sapiens, UniProt Q9NYK1).
T2 construct: host or cells: HEK-Blue cells (HEK293-derived reporter line)
T2 sequence (Q9NYK1 27-1049): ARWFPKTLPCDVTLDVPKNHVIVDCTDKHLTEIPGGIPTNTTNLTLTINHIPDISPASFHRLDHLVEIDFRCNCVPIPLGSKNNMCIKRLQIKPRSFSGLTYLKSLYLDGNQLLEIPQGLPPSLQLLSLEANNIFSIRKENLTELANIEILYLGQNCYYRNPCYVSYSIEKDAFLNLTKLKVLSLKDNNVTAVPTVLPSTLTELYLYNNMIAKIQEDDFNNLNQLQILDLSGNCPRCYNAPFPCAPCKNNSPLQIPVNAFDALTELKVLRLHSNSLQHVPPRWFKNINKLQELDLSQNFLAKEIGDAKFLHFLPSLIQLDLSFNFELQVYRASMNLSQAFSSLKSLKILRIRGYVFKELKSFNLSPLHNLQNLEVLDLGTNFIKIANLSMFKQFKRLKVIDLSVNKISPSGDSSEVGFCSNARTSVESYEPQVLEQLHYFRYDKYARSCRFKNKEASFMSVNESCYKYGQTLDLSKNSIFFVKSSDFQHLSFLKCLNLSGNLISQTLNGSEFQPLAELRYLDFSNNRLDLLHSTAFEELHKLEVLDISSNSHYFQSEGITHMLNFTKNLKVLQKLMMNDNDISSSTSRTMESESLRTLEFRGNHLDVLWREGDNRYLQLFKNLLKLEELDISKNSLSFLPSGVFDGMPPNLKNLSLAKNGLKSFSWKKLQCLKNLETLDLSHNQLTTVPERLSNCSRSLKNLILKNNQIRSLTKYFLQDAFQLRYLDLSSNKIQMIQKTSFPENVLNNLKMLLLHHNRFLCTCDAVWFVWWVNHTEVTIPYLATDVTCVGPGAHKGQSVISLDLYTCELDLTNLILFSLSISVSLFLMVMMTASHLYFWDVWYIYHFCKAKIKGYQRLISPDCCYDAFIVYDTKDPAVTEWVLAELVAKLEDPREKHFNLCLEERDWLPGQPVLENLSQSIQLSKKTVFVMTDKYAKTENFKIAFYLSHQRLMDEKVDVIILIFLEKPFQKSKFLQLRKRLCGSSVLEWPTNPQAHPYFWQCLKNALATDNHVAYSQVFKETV
Description: TLR7 inhibition reporter assay (HEK-Blue cells, SEAP reporter, gardiquimod stimulation). Particulars: HEK-Blue cells overexpressing human TLR7, SEAP reporter, gardiquimod 7.5 μM. The procedure, abridged:
as §1

In a further test the target is T3, human TLR9 (Homo sapiens, UniProt Q9NR96).
T3 construct: host or cells: HEK-Blue cells (HEK293-derived reporter line)
T3 sequence (Q9NR96 26-1032): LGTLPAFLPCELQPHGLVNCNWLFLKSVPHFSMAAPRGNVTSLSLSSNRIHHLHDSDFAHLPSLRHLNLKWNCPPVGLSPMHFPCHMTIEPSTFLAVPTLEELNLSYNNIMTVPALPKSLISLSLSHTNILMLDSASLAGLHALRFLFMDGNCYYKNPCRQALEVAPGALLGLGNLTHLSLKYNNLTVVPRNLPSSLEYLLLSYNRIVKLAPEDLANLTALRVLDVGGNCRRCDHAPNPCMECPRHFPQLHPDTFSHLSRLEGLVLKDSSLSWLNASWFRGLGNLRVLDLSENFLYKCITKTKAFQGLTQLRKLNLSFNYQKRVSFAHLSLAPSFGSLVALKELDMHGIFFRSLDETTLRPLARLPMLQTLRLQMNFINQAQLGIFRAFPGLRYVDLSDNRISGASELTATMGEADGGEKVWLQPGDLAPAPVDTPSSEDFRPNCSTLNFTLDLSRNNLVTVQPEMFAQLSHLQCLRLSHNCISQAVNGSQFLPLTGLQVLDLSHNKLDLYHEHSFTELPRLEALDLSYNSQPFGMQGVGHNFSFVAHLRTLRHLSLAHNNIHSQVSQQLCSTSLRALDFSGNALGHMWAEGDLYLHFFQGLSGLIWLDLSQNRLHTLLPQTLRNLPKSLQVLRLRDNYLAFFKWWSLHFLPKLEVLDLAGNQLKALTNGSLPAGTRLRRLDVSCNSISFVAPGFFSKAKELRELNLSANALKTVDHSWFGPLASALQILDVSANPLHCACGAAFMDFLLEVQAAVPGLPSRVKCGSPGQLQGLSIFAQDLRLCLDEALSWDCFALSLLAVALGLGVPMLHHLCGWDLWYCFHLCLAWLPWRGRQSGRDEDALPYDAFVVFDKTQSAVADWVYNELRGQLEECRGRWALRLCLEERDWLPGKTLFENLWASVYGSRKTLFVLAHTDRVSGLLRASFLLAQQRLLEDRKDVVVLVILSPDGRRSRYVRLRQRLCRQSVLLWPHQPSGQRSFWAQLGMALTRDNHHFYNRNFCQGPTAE
Description: TLR9 inhibition reporter assay (HEK-Blue cells, SEAP reporter, ODN2006 stimulation). Particulars: HEK-Blue cells overexpressing human TLR9, SEAP reporter, ODN2006 5 nM. In short, it runs like this: as §1

On to `CC(C)c1c(-c2cccn3ncnc23)[nH]c2ccc(C3CCN(CC(=O)N(C)C)CC3)cc12` [Example 362, 2-(4-(2-5 ([1,2,4]triazolo[1,5-a]pyridin-8-yl)-3-isopropyl-1H-indol-5-yl)piperidin-1-yl)-N,N-dimethylacetamide], for which the values for the IC50 against human TLR8, against human TLR7 and against human TLR9 were 0.1 to 1 µM, 0.1 to 1 µM and 1 to 50 µM, respectively.
As for `Cc1cn2cc(-c3[nH]c4ccc(C5CCN(C(=O)C[C@H](C)O)CC5)cc4c3CC(F)F)ccc2n1` [Example 608, (S)-1-(4-(3-(2,2-difluoroethyl)-2-(2-methylimidazo[1,2-a]pyridin-6-yl)-1H-indol-5-yl)piperidin-1-yl)-3-hydroxybutan-1-one], the IC50 is over 3.13 µM against human TLR8, 0.1 to 1 µM against human TLR7 and 1 to 50 µM against human TLR9.
As to `CNCCN1CCC(c2ccc3[nH]c(-c4ccnc5[nH]ncc45)c(C(C)C)c3c2)C(F)(F)C1` (stereo not drawn) [Example 674, 2-(3,3-difluoro-4-(3-isopropyl-2-(1H-pyrazolo[3,4-b]pyridin-4-yl)-1H-indol-5-yl)piperidin-1-yl)-N-methylethan-1-amine], the figures for the IC50 against human TLR8, against human TLR7 and at human TLR9 were under 0.1 µM, under 0.1 µM and 0.1 to 1 µM, respectively.
In the case of `CCN(CC)C(=O)C1CCCN(CC(=O)N2CCC(c3ccc4[nH]c(-c5ccnc6[nH]ncc56)c(C(C)C)c4c3)CC2)C1` (stereo not drawn) [Example 588, N,N-diethyl-1-(2-(4-(3-isopropyl-2-(1H-pyrazolo[3,4-b]pyridin-4-yl)-1H-indol-5-yl)piperidin-1-yl)-2-oxoethyl)piperidine-3-carboxamide], the half-maximal inhibitory concentration (IC50) was under 0.1 µM at human TLR8, under 0.1 µM against human TLR7 and 0.1 to 1 µM against human TLR9.
As for `COc1ncc(CN2CCC(c3ccc4[nH]c(-c5ccnc6[nH]ncc56)c(C(C)C)c4c3)CC2)cn1` [Example 909, 4-(3-isopropyl-5-(1-((2-methoxypyrimidin-5-yl)methyl)piperidin-4-yl)-1H-indol-2-yl)-1H-pyrazolo[3,4-b]pyridine], the IC50 was under 0.1 µM at human TLR8, under 0.1 µM against human TLR7 and 1 to 50 µM at human TLR9.
Turning to `Cc1cc(-c2[nH]c3ccc(C4CCNCC4)cc3c2C(C)C)cc2[nH]c(=O)oc12` [Example 91, 5-(3-isopropyl-5-(piperidin-4-yl)-1H-indol-2-yl)-7-methylbenzo[d]oxazol-2(3H)-one], the IC50 on human TLR8, on human TLR7 and against human TLR9 was 0.1 to 1 µM in each case.
`Cc1cc(-c2[nH]c3ccc(C4CCN(C5COC5)CC4)cc3c2C(C)C)cc2cccnc12` [Example 723, 6-(3-isopropyl-5-(1-(oxetan-3-yl)piperidin-4-yl)-1H-indol-2-yl)-8-methylquinoline]: the values for the IC50 on human TLR8, on human TLR7 and on human TLR9 were 0.1 to 1 µM, under 0.1 µM and 1 to 50 µM, respectively.
The matching figures for `CC(C)c1c(-c2ccn3nncc3c2)[nH]c2ccc(C3CCN(C4CCOCC4)CC3)cc12` [Example 701, 5-(3-isopropyl-5-(1-(tetrahydro-2H-pyran-4-yl)piperidin-4-yl)-1H-indol-2-yl)-[1,2,3]triazolo[1,5-a]pyridine]: under 0.1 µM, under 0.1 µM and 0.1 to 1 µM.
For the molecule `Cc1cc(-c2[nH]c3ccc(C4CCN(C(=O)CCN5[C@@H]6CC[C@H]5COC6)CC4)cc3c2C(C)C)cn2nnnc12` [Example 635, 3-((1R,5S)-3-oxa-8-azabicyclo[3.2.1]octan-8-yl)-1-(4-(3-isopropyl-2-(8-methyltetrazolo[1,5-a]pyridin-6-yl)-1H-indol-5-yl)piperidin-1-yl)propan-1-one], the IC50 was under 0.1 µM at human TLR8, under 0.1 µM on human TLR7 and 1 to 50 µM against human TLR9.
With `CC(C)c1c(-c2ccnc3[nH]ncc23)[nH]c2ccc(C3CCN(Cc4ccc(N5CCOCC5)cc4)CC3)cc12` [Example 912, 4-(4-((4-(3-isopropyl-2-(1H-pyrazolo[3,4-b]pyridin-4-yl)-1H-indol-5-yl)piperidin-1-yl)methyl)phenyl)morpholine], the IC50 was under 0.1 µM at human TLR8, under 0.1 µM at human TLR7 and 0.1 to 1 µM against human TLR9.
`Cc1cc(-c2[nH]c3ccc(C4CCN(CC(=O)N(C)C)CC4)cc3c2C(C)C)cc2ncnn12` [Example 324, 2-(4-(3-isopropyl-2-(5-methyl-[1,2,4]triazolo[1,5-a]pyridin-7-yl)-1H-indol-5-yl)piperidin-1-yl)-N,N-dimethylacetamide]: the IC50 against human TLR8 is under 0.1 µM; against human TLR7, under 0.1 µM; on human TLR9, 1 to 50 µM.
In the case of `CC(C)c1c(-c2ccnc3[nH]ncc23)[nH]c2ccc(C3CCN(CC(C)(C)CN(C)C)CC3)cc12` [Example 847, 3-(4-(3-isopropyl-2-(1H-pyrazolo[3,4-b]pyridin-4-yl)-1H-indol-5-yl)piperidin-1-yl)-N,N,2,2-tetramethylpropan-1-amine], the values for the half-maximal inhibitory concentration (IC50) against human TLR8, against human TLR7 and at human TLR9 were under 0.1 µM, under 0.1 µM and 0.1 to 1 µM, respectively.
